Results as given in US6919094B1, “Composition of medicine for treating headache disease and process of preparation and uses thereof” (priority 2000, dated 2005).

Assays:
[1] = test system: rabbit platelet; assay: rabbit platelet aggregation induced by ADP (Born's method); type: cell-based; conditions: rabbit platelet-rich plasma, ADP 12 μM, 5th minute, 0.27 mg/ml
Experimental: 1.1 The influence on the rabbit platelet's aggregative character: Rabbit platelet plasma was prepared according to the Csalay's method. Lucid rabbit's blood was collected by carotid arterial cannula, then the blood was mingled with 3.8% sodium citrate in proportion of 9:1 to anticoagulate. The mixture was centrifuged on the speed of 1000 rpm for 5 minutes then at the speed of 3000 rpm for 10 minutes. The blood plasma was separated into the platelet-rich plasma and the platelet-absent plasma. When conducting the measurement, the platelet aggregation percent was regulated to 50-60%. The platelet aggregation experiment was performed according to the Born's method by the PPP autobalance platelet-aggregation-machine (type SPA-3), keeping the concentrate of ADP(the aggregation inducer) at 12 μM, then collecting the data and comparing the aggregation percents between the treatment group and the control group at the 5th minute.

[2] = test system: rat platelet; assay: rat platelet aggregation after gastric administration; type: in vivo; conditions: 2.7 × 10-2 g/kg PO, ADP 2.8 μM
Experimental: 1.1 The influence on the rabbit platelet's aggregative character: Rabbit platelet plasma was prepared according to the […] method. […] The mixture was centrifuged on the speed of 1000 rpm for 5 minutes then at the speed of 3000 rpm for 10 minutes. The blood plasma was separated into the platelet-rich plasma and the platelet-absent plasma. […] 1.5 hour after the administration, the blood from the abdominal aorta was collected on the condition of anesthesia by ether. The platelet plasma was prepared by the same method mentioned above, and the PLT aggregation experiment performed by the same machine with a different ADP concentrate of 2.8 μM.

[3] = test system: male Wistar rats; assay: rat's experimental thrombosis (extracorporeal circulation); type: in vivo; conditions: 0.05 g/kg iv
Experimental: 1.3 The influence on the rat's experimental thrombosis: Male Wistar rats weighing 270-370 g were chosen to be anaesthetized by belly injection of sodium pentobarbital on the dosage of 50 mg/kg, then the rats were fixed at the supine position and the right common carotid artery and the left external jugular vein were detached. A polyvinyl pipe of 19.5 cm long with the inside diameter of 1.5 mm embedded in a 5.0 cm-long type 4 suture and filled with the solution of heparin and normal saline (25 μ/kg) was inserted into the right common carotid artery one end and the left external jugular vein the other end. […] 15 minutes later, the pipe was closed, the suture taken out and the greenweight measured.

[4] = test system: spontaneous hypertension rat (SHR); assay: BP of the spontaneous hypertension rat; type: in vivo; conditions: 2 × 10-2 g/kg PO
[5] = test system: female NIH mice; assay: mouse hot-plate method pain threshold; type: in vivo; conditions: 1.5 × 10-2 g/kg ip
Experimental: 2.1 The influence on the mouse's reaction to the heat: The experiment referred to the mouse hot-plate method: female NIH mice weighing 18-22 g were put on the type CS501 ultra thermostat's metallic plate, on which the temperature was 55.0±0.5° C. The action of sucking the postpedes and jumping were concerned as the indexes to the pain caused by the heat and the shortest time when the mouse shown the indexes was defined as the pain threshold. The sensitive mice whose pain threshold were shorter than 30 s were chosen and divided into 4 groups according to their pain threshold, each group including 10 mice. […] If the threshold was beyond 60 s, it would be recorded as 60 s. […] The group on the dosage of 5.0 g/kg improved the pain threshold by 148.74% (p<0.001), and the effect lasted 5 hours.

[6] = test system: SD white rats; assay: rat's tail-whipping method pain threshold; type: in vivo; conditions: 1.5 × 10-2 g/kg PO
Experimental: 2.2 The influence on the rat's reaction to the heat. The experiment referred to the rat's tail-whipping method: SD white rats weighing 180-220 g were chosen and the distal ⅓ of their tails were dipped into hot water in which the temperature was regulated to 55.0±0.5° C. by the CS501 ultra thermostat. The tail's whipping out of the water was defined to be the index of pain. The rats were divided equably into 5 groups according to the pain threshold and each group had 9 rats. […] (p<0.05), 64.52% (P<0.05), the duration of effect was 1 h, 4 h.

[7] = test system: female NIH mice; assay: mouse electrostimulation pain threshold; type: in vivo; conditions: 0.05 g/kg ip
Source text: 2.3 The influence on the electrostimulation of mouse: The experiment method adopted was to simulate the mouse's vola with the electricity. Female NIH mice weighing 18-22 g were chosen and put on the conductive copper-wire plate of the YSD-4 multipurpose apparatus's zoopery box. The electricity was switched on and the time when the mouse […] chosen as the index of pain threshold. The sensitive mice whose pain thresholds were shorter than 15 s were chosen to do the experiment.

[8] = test system: female NIH mice; assay: mouse's body-twisting method (ethanoic acid); type: in vivo; conditions: 0.10 g/kg ip, 0.8% ethanoic acid, 20 minutes
Experimental: The experiment method was the mouse's body-twisting method. Female NIH mice weighing 18-22 g were divided into groups at random and each group had 10 mice. […] The number of the mice's body twisting in the following 20 minutes were recorded as the index.

[9] = test system: Kunming mice; assay: mouse's spontaneous activity; type: in vivo; conditions: 5 × 10-2 g/kg PO
Source text: Kunming mice weighing 18-22 g were chosen and divided into groups at random. Each group was made up of 10 mice.

## CC(=O)Oc1ccccc1C(=O)O [Aspirin]
[1]
  aggregation percent: 39.94 ± 2.05 %
[2]
  platelet aggregation percent (max): 31.06 ± 3.80 %
[3]
  greenweight of thrombus: 18.28 ± 1.28 mg

## C[C@H](CS)C(=O)N1CCC[C@H]1C(=O)O [Captopril]
[4]; 1/2 week
  blood pressure: 113.5 ± 3.9
[4]; 1 week
  blood pressure: 138.2 ± 3.6
[4]; 2 week
  blood pressure: 142.3 ± 1.8
[4]; 3 week
  blood pressure: 140.0 ± 2.0
[4]; before administration
  blood pressure: 170.5 ± 2.9

## CN1CC[C@]23c4c5ccc(O)c4O[C@H]2[C@@H](O)C=C[C@H]3[C@H]1C5.Cl [Morphine hydrochloride]
[5]; 1/2 h after administration, cut-off 60 s
  pain threshold (hot-plate method): >60 s
[5]; 1 h after administration, cut-off 60 s
  pain threshold (hot-plate method): >60 s
[5]; 3 h after administration, cut-off 60 s
  pain threshold (hot-plate method): >60 s
[5]; 5 h after administration, cut-off 60 s
  pain threshold (hot-plate method): >60 s
[5]; before administration
  pain threshold (hot-plate method): 22.5 ± 2.4 s
[6]; 1/2 h after administration
  pain threshold (tail-whipping method): 9.2 ± 0.8
[6]; 1 h after administration
  pain threshold (tail-whipping method): 5.7 ± 0.4
[6]; 2 h after administration
  pain threshold (tail-whipping method): 4.5 ± 0.4
[6]; 4 h after administration
  pain threshold (tail-whipping method): 3.3 ± 0.4
[6]; before administration
  pain threshold (tail-whipping method): 3.2 ± 0.3

## Cc1c(N(C)C)c(=O)n(-c2ccccc2)n1C [aminopyrine]
[7]; after administration
  pain threshold in the electrostimulation experiment: 21.3 ± 5.5 s
[7]; before administration
  pain threshold in the electrostimulation experiment: 4.8 ± 1.0 s
[8]
  twist times: 2.8 ± 1.3

## COc1cc2c(cc1OC)[C@@H]1Cc3ccc(OC)c(OC)c3CN1CC2 [tetrahydropalmatine]
[9]
  Amount of spontaneous activity: 24.3 ± 4.3
